Results as given in ChEMBL document CHEMBL1201862, “PubChem BioAssay data set” (2004).
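Five compound concentrations were applied to cells in 96-well plates for 48 hours; endpoints were derived by simple linear interpolation of the resulting dose-response curve. GI50 = concentration required for 50% inhibition of growth.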 Calls of active or inactive are those of the source. No stated cut-off is given here; in the data, active = GI50 up to about 1.1 µM and inactive = higher.

Tests used:
Experiment in all cases: NCI tumour cell line growth inhibition, 48 h
[1] = system: BT-549
[2] = system: PC-3
[3] = system: DLD-1
[4] = system: DMS-273
[5] = system: HOP-18
[6] = system: SNB-78
[7] = system: M19-MEL
[8] = system: DMS-114

Compound	GI50 [1]	GI50 [2]	further results
COc1ccc2c(c1)c1c(n2CCN2CCOCC2)-c2cccc(OC)c2CC1	37.2 µM (inactive)	23.7 µM (inactive)	
CCOC(=O)Cn1c(C)nc2nn(Cc3ccccc3)cc2c1=O	> 100 µM (inactive)	> 100 µM (inactive)	
COc1cc2c(c(OC)c1OC)-c1ccc(SC)c(=O)cc1[C@@H](NC(=O)C(F)(F)F)CC2	0.0118 µM (active)	< 0.01 µM (active)	GI50 [3]: < 0.01 µM (active); GI50 [4]: < 0.01 µM (active); GI50 [5]: 26.5 µM (inactive)
COC1(OC)C=CC2C1C1C=CC2C1(OC)OC (centres undefined)		> 100 µM (inactive)	
Cc1ccc(C(O)/C(=N/N)c2nc3ccc([N+](=O)[O-])cc3nc2O)cc1 (centres undefined)			GI50 [3]: > 100 µM (inactive); GI50 [6]: > 100 µM (inactive); GI50 [4]: 83.4 µM (inactive); GI50 [7]: > 100 µM (inactive); GI50 [8]: 33.9 µM (inactive)
O=C(Nc1ccc2[nH]c(C(=O)N3CC(CCl)c4c3cc([N+](=O)[O-])c3ccccc43)cc2c1)Nc1ccc2[nH]c(C(=O)N3CC(CCl)c4c3cc([N+](=O)[O-])c3ccccc43)cc2c1 (centres undefined)	> 100 µM (inactive)	> 100 µM (inactive)	
CC(C)(C)OC(=O)n1c2ccccc2c2c(=O)nc(N3CCCCC3)sc21	> 100 µM (inactive)	> 100 µM (inactive)	
NC(=O)NC(=O)c1cnccn1		> 100 µM (inactive)	
CCCC(=O)Nc1cc(/C=C/C(=O)N2C[C@H]3C[C@@]34C2=CC(=O)c2[nH]cc(C)c24)n(C)c1	< 0.0025 µM (active)	< 0.0025 µM (active)	
NC(=O)NNCc1c(-c2ccccc2)no[n+]1[O-]	> 100 µM (inactive)	> 100 µM (inactive)	
O=S(=O)(O)c1cc(O)c(/N=N\C2S(=O)(=O)OCCOS2(=O)=O)c2ccccc12	> 100 µM (inactive)	> 100 µM (inactive)	
CN(C)c1ccc(/C=C2\N=C(c3ccccc3)N(c3nc4c(Cl)cc(Cl)cc4s3)C2=O)cc1	54.3 µM (inactive)	32.4 µM (inactive)	
COc1ccc(/C=C2\S/C(=N/Nc3nc(-c4ccccc4)cs3)NC2=O)cc1OC	24.5 µM (inactive)	17.4 µM (inactive)	
CSc1ncc2c(C#N)c3sc4ccccc4n3c(=O)c2n1	> 100 µM (inactive)	> 100 µM (inactive)	
N/C(=N\c1ccc(Cl)cc1)NS(=O)(=O)c1ccc(S(=O)(=O)c2ccccc2)s1	17.6 µM (inactive)	14.2 µM (inactive)	
COC(=O)/C=C(C)/C=C/c1cc(C(C)=O)c(C)o1			GI50 [3]: 43.8 µM (inactive); GI50 [6]: > 100 µM (inactive); GI50 [8]: 93.3 µM (inactive); GI50 [5]: 46.9 µM (inactive)
O=C(NC(Cc1c[nH]c2ccccc12)C(=O)Nc1ccc(Br)cc1)OCc1ccccc1 (centres undefined)	14.8 µM (inactive)	10.4 µM (inactive)	

Compound	GI50 [1]	GI50 [2]	further results
COC(=O)[C@H]1C2CC[C@@H]3C45C[C@@H](c6ccoc6)O[C@@H]4O[C@@H](O2)C31CCC5C (some centres undefined)			GI50 [3]: > 100 µM (inactive); GI50 [6]: 25.7 µM (inactive); GI50 [4]: > 100 µM (inactive); GI50 [5]: > 100 µM (inactive)
Cc1n[nH]c(=O)n1-n1cccc1	> 100 µM (inactive)	> 100 µM (inactive)	
CC1=NC(=Cc2ccc(Cl)cc2)C(=O)N1n1c(-c2ccccc2)nc2ccccc2c1=O	40.6 µM (inactive)	24.3 µM (inactive)	
COc1cc2c(cc1C)NC(=O)/C2=C/c1c(Cl)n(-c2ccccc2)c2ccccc12	17.3 µM (inactive)	4.41 µM (inactive)	
CC(=O)OCC1OC(c2nnc(C)o2)=CC(OC(C)=O)C1OC(C)=O (centres undefined)	> 100 µM (inactive)	> 100 µM (inactive)	
COC(=O)C(Cc1ccccc1)NC(=O)CCCNC(=O)OCc1ccccc1 (centres undefined)	> 100 µM (inactive)	> 100 µM (inactive)	
COc1cccc(C2=NC(C(C)C)CO2)c1OC (centres undefined)			GI50 [3]: > 100 µM (inactive); GI50 [6]: > 100 µM (inactive); GI50 [4]: > 100 µM (inactive); GI50 [7]: > 100 µM (inactive); GI50 [8]: > 100 µM (inactive)
Nc1ccc(Oc2ccc(C34CC5CC(C3)CC(c3ccc(Oc6ccc(N)cc6)cc3)(C5)C4)cc2)cc1	8.69 µM (inactive)	6.28 µM (inactive)	
c1ccc(-c2cc(-c3cc(-c4ccccc4)n(-c4ccccc4)n3)nn2-c2ccccc2)cc1	> 100 µM (inactive)	> 100 µM (inactive)	
O=C(Nc1ccccc1Cl)c1cc(S(=O)(=O)Nc2n[nH]c(=O)n2-c2ccccc2)c(S)cc1Cl	> 100 µM (inactive)		
CC(=O)OCc1cn(S(=O)(=O)c2ccc(C)cc2)cn1	> 100 µM (inactive)	> 100 µM (inactive)	
O=C(NCCCCCCCN1CCCCCCC1)C(C1CCCCC1)C1CCCCC1	14.3 µM (inactive)	8.57 µM (inactive)	
COc1ccc(-c2cc(=O)c3c(OC)c(OC)c(OC)c(OC)c3o2)c(OC)c1	31 µM (inactive)		
O=C(O)/C(=C/C=C/c1ccccc1)c1csc(-c2nc(/C(=C\C=C\c3ccccc3)C(=O)O)cs2)n1			GI50 [3]: 12.6 µM (inactive); GI50 [6]: 27.2 µM (inactive); GI50 [7]: 31.1 µM (inactive); GI50 [8]: 23.7 µM (inactive)
COc1cccc2c1OC(c1ccc(C#N)cc1)C([N+](=O)[O-])=C2 (centres undefined)	1.49 µM (inactive)	1.88 µM (inactive)	
CN(C)CCNc1ncnc2[nH]c(-c3ccc4ccccc4c3)nc12	> 100 µM (inactive)	> 100 µM (inactive)	
O=C(CNc1c(Cl)cccc1Cl)NC1C=Cc2ccc(S(=O)(=O)Nc3c(Cl)cccc3Cl)cc2C1=O (centres undefined)	60.7 µM (inactive)	23.7 µM (inactive)	
